Measurements as given in ChEMBL document CHEMBL1201862, “PubChem BioAssay data set” (2004).
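Grown in 96-well plates, cells were treated for 48 hours with each compound at five concentrations. Insufficient inhibition: endpoint recorded as highest concentration tested. At the GI50, growth is halved.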 Calls of active or inactive are those of the source. Cut-off read from the data, not from the text of the source: active = GI50 up to about 1.1 µM and inactive = higher.

How the values were obtained:
Test in all cases: NCI tumour cell line growth inhibition, 48 h
HOP-18 = test system: HOP-18
HCT-15 = test system: HCT-15
SN12C = test system: SN12C
SK-OV-3 = test system: SK-OV-3
UACC-62 = test system: UACC-62
SF-539 = test system: SF-539
XF498 = test system: XF498
SK-MEL-5 = test system: SK-MEL-5
DLD-1 = test system: DLD-1
SK-MEL-2 = test system: SK-MEL-2
LXFL 529 = test system: LXFL 529
LOX IMVI = test system: LOX IMVI
NCI-H460 = test system: NCI-H460
DMS-273 = test system: DMS-273
HL-60 = test system: HL-60
SF-295 = test system: SF-295
KM-20L2 = test system: KM-20L2
CAKI-1 = test system: CAKI-1
HOP-92 = test system: HOP-92
OVCAR-3 = test system: OVCAR-3
SNB-19 = test system: SNB-19
A549 = test system: A549
HCT-116 = test system: HCT-116
SNB-78 = test system: SNB-78
SK-MEL-28 = test system: SK-MEL-28
786-0 = test system: 786-0
RPMI-8226 = test system: RPMI-8226
OVCAR-8 = test system: OVCAR-8
TK-10 = test system: TK-10
NCI-H522 = test system: NCI-H522
M19-MEL = test system: M19-MEL
HT-29 = test system: HT-29
SW-620 = test system: SW-620
KM12 = test system: KM12
SF-268 = test system: SF-268
NCI-H226 = test system: NCI-H226
HOP-62 = test system: HOP-62
CCRF-CEM = test system: CCRF-CEM
K562 = test system: K562
COLO 205 = test system: COLO 205
HCC 2998 = test system: HCC 2998
M14 = test system: M14
MOLT-4 = test system: MOLT-4
RXF 393 = test system: RXF 393
NCI-H23 = test system: NCI-H23
Malme-3M = test system: Malme-3M
EKVX = test system: EKVX
U-251 = test system: U-251
UO-31 = test system: UO-31
ACHN = test system: ACHN
DMS-114 = test system: DMS-114
IGROV-1 = test system: IGROV-1
OVCAR-4 = test system: OVCAR-4
SNB-75 = test system: SNB-75
UACC-257 = test system: UACC-257
OVCAR-5 = test system: OVCAR-5
A498 = test system: A498
SR = test system: SR

COc1ccc2c(c1)Cc1c-2[nH]c2cc3c(cc2c1=O)OCO3
GI50 (HOP-18): 17.5 µM (inactive) | GI50 (HCT-15): 9.91 µM | GI50 (SN12C): 30.7 µM (inactive) | GI50 (SK-OV-3): 22.3 µM (inactive) | GI50 (UACC-62): 10.4 µM (inactive) | GI50 (SF-539): 14.3 µM (inactive) | GI50 (XF498): 15 µM (inactive) | GI50 (SK-MEL-5): 6.21 µM (inactive) | GI50 (DLD-1): 13.9 µM (inactive) | GI50 (SK-MEL-2): 6.14 µM (inactive) | GI50 (LXFL 529): 19.5 µM (inactive) | GI50 (LOX IMVI): 14.5 µM (inactive) | GI50 (NCI-H460): 10.3 µM (inactive) | GI50 (DMS-273): 7.67 µM (inactive) | GI50 (HL-60): 6.12 µM (inactive) | GI50 (SF-295): 16.3 µM (inactive) | GI50 (KM-20L2): 14.7 µM (inactive) | GI50 (CAKI-1): 32.1 µM (inactive) | GI50 (HOP-92): 17.7 µM (inactive) | GI50 (OVCAR-3): 16.7 µM (inactive) | GI50 (SNB-19): 23 µM (inactive) | GI50 (A549): 7.31 µM (inactive) | GI50 (HCT-116): 6.56 µM (inactive) | GI50 (SNB-78): 8.83 µM (inactive) | GI50 (SK-MEL-28): 15.8 µM (inactive) | GI50 (786-0): 20.2 µM (inactive) | GI50 (RPMI-8226): 6.11 µM (inactive) | GI50 (OVCAR-8): 19.1 µM (inactive) | GI50 (TK-10): 9.31 µM (inactive) | GI50 (NCI-H522): 10.8 µM (inactive) | GI50 (M19-MEL): 15.7 µM (inactive) | GI50 (HT-29): 6.44 µM (inactive) | GI50 (SW-620): 27.5 µM (inactive) | GI50 (KM12): 9.48 µM (inactive) | GI50 (SF-268): 18.7 µM (inactive) | GI50 (NCI-H226): 29.9 µM (inactive) | GI50 (HOP-62): 17.1 µM (inactive) | GI50 (CCRF-CEM): 4.33 µM (inactive) | GI50 (K562): 7.94 µM (inactive) | GI50 (COLO 205): 12 µM (inactive) | GI50 (HCC 2998): 11.6 µM (inactive) | GI50 (M14): 14.2 µM (inactive) | GI50 (MOLT-4): 8.81 µM (inactive) | GI50 (RXF 393): 4.01 µM (inactive) | GI50 (NCI-H23): 16.3 µM (inactive) | GI50 (Malme-3M): 13.7 µM (inactive) | GI50 (EKVX): 23.8 µM (inactive) | GI50 (U-251): 9.89 µM (inactive) | GI50 (UO-31): 15.8 µM (inactive) | GI50 (ACHN): 7.94 µM (inactive) | GI50 (DMS-114): 4.07 µM (inactive) | GI50 (IGROV-1): 16.9 µM (inactive) | GI50 (OVCAR-4): 25.4 µM (inactive)

C/C(=N/NC(N)=S)C(CN(C)C)C(C1=C(O)c2ccccc2OC1)c1ccccc1 (stereo not given)
GI50 (HOP-18): > 100 µM (inactive) | GI50 (HCT-15): > 100 µM | GI50 (SN12C): > 100 µM (inactive) | GI50 (SK-OV-3): > 100 µM (inactive) | GI50 (UACC-62): > 100 µM (inactive) | GI50 (SF-539): > 100 µM (inactive) | GI50 (XF498): > 100 µM (inactive) | GI50 (SK-MEL-5): > 100 µM (inactive) | GI50 (DLD-1): > 100 µM (inactive) | GI50 (SNB-75): > 100 µM (inactive) | GI50 (SK-MEL-2): > 100 µM (inactive) | GI50 (LXFL 529): > 100 µM (inactive) | GI50 (LOX IMVI): > 100 µM (inactive) | GI50 (NCI-H460): > 100 µM (inactive) | GI50 (DMS-273): > 100 µM (inactive) | GI50 (HL-60): > 100 µM (inactive) | GI50 (SF-295): > 100 µM (inactive) | GI50 (KM-20L2): > 100 µM (inactive) | GI50 (CAKI-1): > 100 µM (inactive) | GI50 (UACC-257): > 100 µM (inactive) | GI50 (OVCAR-3): > 100 µM (inactive) | GI50 (SNB-19): > 100 µM (inactive) | GI50 (A549): > 100 µM (inactive) | GI50 (HCT-116): > 100 µM (inactive) | GI50 (SNB-78): > 100 µM (inactive) | GI50 (SK-MEL-28): > 100 µM (inactive) | GI50 (OVCAR-5): > 100 µM (inactive) | GI50 (786-0): > 100 µM (inactive) | GI50 (RPMI-8226): > 100 µM (inactive) | GI50 (OVCAR-8): > 100 µM (inactive) | GI50 (TK-10): > 100 µM (inactive) | GI50 (NCI-H522): > 100 µM (inactive) | GI50 (M19-MEL): > 100 µM (inactive) | GI50 (HT-29): > 100 µM (inactive) | GI50 (SW-620): > 100 µM (inactive) | GI50 (KM12): > 100 µM (inactive) | GI50 (SF-268): > 100 µM (inactive) | GI50 (A498): > 100 µM (inactive) | GI50 (NCI-H226): > 100 µM (inactive) | GI50 (HOP-62): > 100 µM (inactive) | GI50 (CCRF-CEM): > 100 µM (inactive) | GI50 (K562): > 100 µM (inactive) | GI50 (COLO 205): > 100 µM (inactive) | GI50 (HCC 2998): > 100 µM (inactive) | GI50 (M14): > 100 µM (inactive) | GI50 (MOLT-4): > 100 µM (inactive) | GI50 (SR): > 100 µM (inactive) | GI50 (RXF 393): > 100 µM (inactive) | GI50 (NCI-H23): > 100 µM (inactive) | GI50 (Malme-3M): > 100 µM (inactive) | GI50 (EKVX): > 100 µM (inactive) | GI50 (U-251): > 100 µM (inactive) | GI50 (UO-31): > 100 µM (inactive) | GI50 (ACHN): > 100 µM (inactive) | GI50 (DMS-114): > 100 µM (inactive) | GI50 (IGROV-1): > 100 µM (inactive) | GI50 (OVCAR-4): > 100 µM (inactive)

C/C(=C1/CCCC2(N=NCC2c2ccccc2)C1=O)c1ccccc1 (stereo not given)
GI50 (HOP-18): 51.1 µM (inactive) | GI50 (HCT-15): 35.1 µM | GI50 (SN12C): 40.5 µM (inactive) | GI50 (SK-OV-3): 30.7 µM (inactive) | GI50 (UACC-62): 16.3 µM (inactive) | GI50 (SF-539): 41.2 µM (inactive) | GI50 (XF498): 17.4 µM (inactive) | GI50 (SK-MEL-5): 12.7 µM (inactive) | GI50 (DLD-1): 38.3 µM (inactive) | GI50 (SNB-75): 30.3 µM (inactive) | GI50 (SK-MEL-2): 19.1 µM (inactive) | GI50 (LXFL 529): 17.3 µM (inactive) | GI50 (LOX IMVI): 32.8 µM (inactive) | GI50 (NCI-H460): 26.3 µM (inactive) | GI50 (DMS-273): 15.9 µM (inactive) | GI50 (HL-60): 8.95 µM (inactive) | GI50 (SF-295): 30.9 µM (inactive) | GI50 (KM-20L2): 25.6 µM (inactive) | GI50 (HOP-92): 24.2 µM (inactive) | GI50 (UACC-257): 22.1 µM (inactive) | GI50 (OVCAR-3): 17.6 µM (inactive) | GI50 (SNB-19): 66.4 µM (inactive) | GI50 (A549): 20.4 µM (inactive) | GI50 (HCT-116): 18.7 µM (inactive) | GI50 (SNB-78): 25.4 µM (inactive) | GI50 (SK-MEL-28): 26.9 µM (inactive) | GI50 (OVCAR-5): 36 µM (inactive) | GI50 (786-0): 46.7 µM (inactive) | GI50 (RPMI-8226): 20 µM (inactive) | GI50 (OVCAR-8): 21.3 µM (inactive) | GI50 (TK-10): 42.7 µM (inactive) | GI50 (NCI-H522): 14.8 µM (inactive) | GI50 (M19-MEL): 22.3 µM (inactive) | GI50 (HT-29): 20.5 µM (inactive) | GI50 (SW-620): 69.8 µM (inactive) | GI50 (KM12): 15.9 µM (inactive) | GI50 (SF-268): 65.3 µM (inactive) | GI50 (NCI-H226): 16 µM (inactive) | GI50 (CCRF-CEM): 19.6 µM (inactive) | GI50 (K562): 12 µM (inactive) | GI50 (COLO 205): 16.5 µM (inactive) | GI50 (HCC 2998): 38.2 µM (inactive) | GI50 (M14): 13.8 µM (inactive) | GI50 (MOLT-4): 14.4 µM (inactive) | GI50 (SR): 14 µM (inactive) | GI50 (RXF 393): 25.4 µM (inactive) | GI50 (NCI-H23): 16.6 µM (inactive) | GI50 (Malme-3M): 21 µM (inactive) | GI50 (EKVX): 28.3 µM (inactive) | GI50 (U-251): 23.8 µM (inactive) | GI50 (UO-31): 20.9 µM (inactive) | GI50 (ACHN): 31.8 µM (inactive) | GI50 (DMS-114): 9.16 µM (inactive) | GI50 (IGROV-1): 42.4 µM (inactive) | GI50 (OVCAR-4): 30.7 µM (inactive)
